From patent publication US9969723B2, “3-(4-(benzyloxy)phenyl)hex-4-ynoic acid derivative, method of preparing same and pharmaceutical composition for preventing and treating metabolic disease including same as effective ingredient” (HYUNDAI PHARM CO., LTD, priority 2014, dated 2018) come the findings set out here.

Read-outs that look alike come from different tables or passages of the source.

One data set concerns the target CYP1A2 (Homo sapiens (Human), UniProt P05177). Put plainly: CYP inhibition (BD GENTEST kit). The format is in vitro ADME. Conditions: pH 7.4. Here is the method:
(§1) CYP is the enzyme involved in drug metabolism. So, the inhibition of this enzyme can change the prediction of dose of a drug and toxicity caused by the co-treatment with other drugs. Therefore, the inventors measured the inhibitory effect of the compounds of Examples of the invention on endogenous CYP3A4, CYP2C9, CYP1A2, CYP2D6, and CYP2C19. […] To prepare the Invitrogen kit, the test sample was diluted in distilled water at 2.5× of the final experimental concentration.
(§2) The test sample for BD GENTEST kit was diluted in acetonitrile at 50× of the final experimental concentration. NADPH-coenzyme mixture was prepared by diluting the coenzyme, G6PDH, and regulatory protein included in the kit with distilled water at the concentration instructed by the kit. The prepared 50× sample (4 μL) and the NADPH-coenzyme mixture (96 μL) were mixed in each well of U-bottom 96-well plate, followed by pre-culture for 10 minutes in a 37° C. incubator. Enzyme/substrate mixed solution was prepared by diluting the buffer (0.5 M potassium phosphate, pH 7.4), each CYP450 enzyme/substrate mixed solution included in the kit with distilled water at the instructed concentration. Upon completion of the pre-culture, 100 μL of the enzyme/substrate mixed solution was added in each well of the plate, followed by culture in a 37° C. incubator for 15 minutes (CYP 1A2), 30 minutes (CYP 3A4 and CYP 2C19) or 1 and half hours (CYP 2C9). […] The values obtained above were converted into % as the inhibition rate of the sample by the value of the non-treated group.

The target of another data set is CYP2C19 (Homo sapiens (Human), UniProt P33261). Kind of data set: CYP inhibition (BD GENTEST kit). Format: in vitro ADME. Conditions: CYP2C19 enzyme of BD GENTEST inhibition kit, pH 7.4, read-out: CYP inhibition (%) 2C19. Here is the method: as §1, §2
CYP2C19, sequence (P33261 whole entry): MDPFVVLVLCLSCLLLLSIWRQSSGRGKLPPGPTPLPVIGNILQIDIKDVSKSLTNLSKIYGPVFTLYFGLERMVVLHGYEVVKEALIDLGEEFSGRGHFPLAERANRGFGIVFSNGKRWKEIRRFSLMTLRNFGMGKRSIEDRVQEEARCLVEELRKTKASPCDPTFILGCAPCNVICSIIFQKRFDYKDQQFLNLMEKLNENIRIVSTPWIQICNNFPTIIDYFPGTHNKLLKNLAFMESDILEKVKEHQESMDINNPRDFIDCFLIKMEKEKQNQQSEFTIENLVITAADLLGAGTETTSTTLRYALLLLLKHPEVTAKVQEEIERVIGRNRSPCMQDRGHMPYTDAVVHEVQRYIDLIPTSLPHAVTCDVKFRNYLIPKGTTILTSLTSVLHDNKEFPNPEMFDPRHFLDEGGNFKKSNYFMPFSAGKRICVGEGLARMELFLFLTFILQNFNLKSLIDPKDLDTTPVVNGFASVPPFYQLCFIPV
In the next data set the target is CYP2C9 (Homo sapiens (Human), UniProt P11712). Put plainly: CYP inhibition (BD GENTEST kit). Format: in vitro ADME. To be noted: CYP2C9 enzyme of BD GENTEST inhibition kit, pH 7.4, read-out: CYP inhibition (%) 2C9. Here is the method: as §1, §2
CYP2C9, sequence (P11712 whole entry): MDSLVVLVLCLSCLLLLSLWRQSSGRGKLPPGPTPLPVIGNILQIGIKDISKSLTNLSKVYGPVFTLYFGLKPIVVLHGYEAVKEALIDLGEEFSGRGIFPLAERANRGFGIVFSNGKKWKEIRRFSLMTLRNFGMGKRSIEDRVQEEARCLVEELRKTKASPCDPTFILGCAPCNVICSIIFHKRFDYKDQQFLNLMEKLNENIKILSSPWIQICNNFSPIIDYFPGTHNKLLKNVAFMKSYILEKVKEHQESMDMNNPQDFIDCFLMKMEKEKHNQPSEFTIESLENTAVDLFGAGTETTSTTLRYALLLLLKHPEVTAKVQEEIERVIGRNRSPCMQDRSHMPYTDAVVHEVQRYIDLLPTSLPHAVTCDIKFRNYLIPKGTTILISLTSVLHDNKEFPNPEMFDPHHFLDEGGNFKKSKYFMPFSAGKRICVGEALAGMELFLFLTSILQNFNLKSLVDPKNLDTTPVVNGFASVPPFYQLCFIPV
A further data set addresses CYP2D6 (Homo sapiens (Human), UniProt P10635). Put plainly: CYP inhibition (Invitrogen Vivid kit). Format: in vitro ADME. To be noted: P450 BACULOSOMES reagent (Invitrogen Vivid CYP2D6 kit P2862), probe Vivid CYP450 substrate, read-out: CYP inhibition (%) 2D6. The text has this:
(§3) CYP is the enzyme involved in drug metabolism. So, the inhibition of this enzyme can change the prediction of dose of a drug and toxicity caused by the co-treatment with other drugs. Therefore, the inventors measured the inhibitory effect of the compounds of Examples of the invention on endogenous CYP3A4, CYP2C9, CYP1A2, CYP2D6, and CYP2C19. At this time, Invitrogen (P2862) was used as the CYP2D6 inhibition kit, and BD GENTEST (459100, 459300, 459400, 459500) was used as the CYP1A2, CYP2C9, CYP2C19, and CYP3A4 inhibition kit. To prepare the Invitrogen kit, the test sample was diluted in distilled water at 2.5× of the final experimental concentration.
P450 BACULOSOMES® reagent and reproducer (100×) included in Invitrogen kit were diluted in Vivid® CYP450 reaction buffer (2×) at the concentration that matched the target CYP450. The prepared 2.5× sample (80 μL) and the diluted P450 BACULOSOMES® reagent mixture (100 μL) were mixed in each well of U-bottom 96-well plate, followed by pre-culture for 20 minutes. Vivid® CYP450 substrate and NADP+ (100×) were diluted in Vivid® CYP450 reaction buffer (2×) at the concentration that matched the target CYP450 and the substrate. Upon completion of the pre-culture, substrate-NADP (nicotinamide adenine dinucleotide phosphate) mixed solution (20 μL) was added thereto, followed by reaction for 1 hour. Upon completion of the reaction, the reactant was transferred onto the white plate, and then fluorescence was measured with a microplate reader (CYP 2D6 excitation wavelength: 400 nm, absorption wavelength: 502 nm). […]

For a further data set, the target named is CYP3A4 (Homo sapiens (Human), UniProt P08684). Kind of data set: CYP inhibition (BD GENTEST kit). Format: in vitro ADME. Conditions: CYP3A4 enzyme of BD GENTEST inhibition kit, pH 7.4, read-out: CYP inhibition (%) 3A4.
CYP3A4, sequence (P08684 whole entry): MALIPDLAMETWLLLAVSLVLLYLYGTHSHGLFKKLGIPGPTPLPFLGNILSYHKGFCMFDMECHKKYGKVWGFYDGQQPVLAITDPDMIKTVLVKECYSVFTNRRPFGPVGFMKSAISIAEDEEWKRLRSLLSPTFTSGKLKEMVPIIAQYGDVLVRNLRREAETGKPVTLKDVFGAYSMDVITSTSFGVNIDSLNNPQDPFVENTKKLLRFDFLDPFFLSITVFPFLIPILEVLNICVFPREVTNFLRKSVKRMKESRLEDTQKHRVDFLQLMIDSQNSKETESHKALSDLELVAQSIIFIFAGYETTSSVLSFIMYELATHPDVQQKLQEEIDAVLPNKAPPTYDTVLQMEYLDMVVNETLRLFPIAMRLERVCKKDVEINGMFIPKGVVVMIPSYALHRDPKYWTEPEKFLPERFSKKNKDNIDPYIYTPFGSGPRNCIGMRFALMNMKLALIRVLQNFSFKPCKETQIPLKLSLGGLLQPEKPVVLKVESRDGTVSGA
Excerpt: as §3
The test sample for BD GENTEST kit was diluted in acetonitrile at 50× of the final experimental concentration. NADPH-coenzyme mixture was prepared by diluting the coenzyme, G6PDH, and regulatory protein included in the kit with distilled water at the concentration instructed by the kit. The prepared 50× sample (4 μL) and the NADPH-coenzyme mixture (96 μL) were mixed in each well of U-bottom 96-well plate, followed by pre-culture for 10 minutes in a 37° C. incubator. Enzyme/substrate mixed solution was prepared by diluting the buffer (0.5 M potassium phosphate, pH 7.4), each CYP450 enzyme/substrate mixed solution included in the kit with distilled water at the instructed concentration. Upon completion of the pre-culture, 100 μL of the enzyme/substrate mixed solution was added in each well of the plate, followed by culture in a 37° C. incubator for 15 minutes (CYP 1A2), 30 minutes (CYP 3A4 and CYP 2C19) or 1 and half hours (CYP 2C9). Upon completion of the reaction, the reactant was transferred onto the white plate, and then fluorescence was measured with a microplate reader (CYP 1A2 and CYP 2C19 excitation wavelength: 410 nm, absorption wavelength: 460 nm; CYP 2C9 and CYP 3A4 excitation wavelength: 409 nm, absorption wavelength: 530 nm). The values obtained above were converted into % as the inhibition rate of the sample by the value of the non-treated group.

The target in a further data set is GPR40 (Homo sapiens (Human), UniProt O14842). Put plainly: GPR40 protein activity by intracellular calcium concentration (Fluo-4, Flexstation 3) in transfected HEK-293 cells. The format is cell-based. To be noted: HEK-293 cells transfected with human GPR40, intracellular calcium. Here is the method: The GPR40 protein activity according to the novel 3-(4-(benzyloxy)phenyl)hex-4-inoic acid derivative of the present invention was measured by investigating the changes in intracellular calcium concentration affected by the GRP40 activation. First, HEK-293 cells were transfected with human GPR40 DNA (Origene, RC218370) by using Fugene HD (Promega, E2311). […] 24 hours later, the cell culture medium was replaced with Dulbecco's Modified Eagle Medium (DMEM, 50 μl/well) supplemented with 1% fetal bovine serum (FBS). To measure the calcium concentration, 50 μl of Fluo-4 reagent (Invitrogen, F10471) was added to each well, followed by culture in a 37° C. incubator for 2 hours. […] 2 hours after the culture began, those prepared samples were automatically injected to the cells by using Flexstation 3 (Molecular Devices). Then, intracellular calcium concentration was measured for 120 seconds by using SoftMax® Pro software. At this time, dimethylsulfoxide (DMSO) was injected to the cells for the non-treated group, followed by measuring the calcium concentration therein. The GPR40 protein activity was calculated by the below mathematical formula 1 with the results of calcium concentration measurement. GPR40 activity=(intracellular calcium concentration increased by the sample)/(intracellular calcium concentration of the non-treated group)×100 [Mathematical Formula 1]
GPR40, sequence (O14842 whole entry): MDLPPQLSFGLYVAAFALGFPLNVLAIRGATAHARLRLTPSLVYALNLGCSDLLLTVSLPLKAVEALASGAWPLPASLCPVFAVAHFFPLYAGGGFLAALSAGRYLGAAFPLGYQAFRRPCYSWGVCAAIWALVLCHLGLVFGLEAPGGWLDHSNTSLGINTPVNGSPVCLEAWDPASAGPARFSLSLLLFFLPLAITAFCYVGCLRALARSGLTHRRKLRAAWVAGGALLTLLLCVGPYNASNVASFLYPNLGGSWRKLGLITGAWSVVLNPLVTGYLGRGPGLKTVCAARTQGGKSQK
For orientation: Calcium assays in cells follow changes in intracellular calcium, usually with a dye or a luminescent sensor.

Data set [1] deals with Male Goto-Kakizaki (GK) rats, the type II diabetes animal model (not obesity). Kind of data set: Oral glucose tolerance test (OGTT) 2. Format: in vivo, rat. Here is the method:
(§4) Male Goto-Kakizaki (GK) rats at 22˜23 weeks, the type II diabetes animal model (not obesity), were adapted at least for 7 days. Only healthy animals were selected thereafter, followed by OGTT. After fasting for 16˜18 hours, 5 rats per group were randomly selected and orally administered with the compounds prepared in Examples 5, 9, 14, 28, 37, and 47 at the dose of 0.3˜10 mg/kg. At this time, 5% polyethyleneglycol (PEG) was orally administered at the same dose to the non-treated group rats. 60 minutes after the sample administration, glucose (4 g/kg) was orally administered thereto at the dose of 5 ml/kg. Then, blood glucose was measured by using Accu-chek active strip (Roche diagnostic Co.). The time for the measurement was set at 60 minutes before the glucose administration (−60), 0 minute, 20 minutes, 40 minutes, 60 minutes, and 120 minutes after the glucose administration, and blood glucose was measured through tail vein puncture.

Data set [2] concerns Male OLETF (Otsuka Long-Evans Tokushima fatty) rats, the type II diabetes animal model (obesity). Put plainly: Oral glucose tolerance test (OGTT) 3. Format: in vivo, rat. Here is the method: as §4, with “OLETF (Otsuka Long-Evans Tokushima fatty)” for “Goto-Kakizaki (GK)”, “29˜30” for “22˜23”, “(obesity),” for “(not obesity),”, “1˜10” for “0.3˜10”
The mark [3] stands for this setting: values in text, read-out: EC50, concentration promoting activation of GPR40 protein by 50%.
Where [4] appears, read: oral dose 10 mg/kg, values in text.

CYP1A2, sequence (P05177 whole entry): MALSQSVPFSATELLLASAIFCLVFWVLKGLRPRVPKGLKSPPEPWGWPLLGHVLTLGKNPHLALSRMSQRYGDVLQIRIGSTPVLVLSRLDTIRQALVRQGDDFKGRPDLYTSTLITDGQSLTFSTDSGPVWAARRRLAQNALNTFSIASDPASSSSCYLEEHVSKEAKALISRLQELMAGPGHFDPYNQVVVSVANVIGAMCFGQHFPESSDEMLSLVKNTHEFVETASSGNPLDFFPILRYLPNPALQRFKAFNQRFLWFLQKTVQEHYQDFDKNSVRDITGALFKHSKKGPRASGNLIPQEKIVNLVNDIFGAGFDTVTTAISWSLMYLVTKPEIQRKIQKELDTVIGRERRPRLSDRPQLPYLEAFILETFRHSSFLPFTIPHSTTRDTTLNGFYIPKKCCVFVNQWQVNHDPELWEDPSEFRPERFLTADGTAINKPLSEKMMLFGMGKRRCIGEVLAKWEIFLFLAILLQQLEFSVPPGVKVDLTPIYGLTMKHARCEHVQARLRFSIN
CYP2D6, sequence (P10635 whole entry): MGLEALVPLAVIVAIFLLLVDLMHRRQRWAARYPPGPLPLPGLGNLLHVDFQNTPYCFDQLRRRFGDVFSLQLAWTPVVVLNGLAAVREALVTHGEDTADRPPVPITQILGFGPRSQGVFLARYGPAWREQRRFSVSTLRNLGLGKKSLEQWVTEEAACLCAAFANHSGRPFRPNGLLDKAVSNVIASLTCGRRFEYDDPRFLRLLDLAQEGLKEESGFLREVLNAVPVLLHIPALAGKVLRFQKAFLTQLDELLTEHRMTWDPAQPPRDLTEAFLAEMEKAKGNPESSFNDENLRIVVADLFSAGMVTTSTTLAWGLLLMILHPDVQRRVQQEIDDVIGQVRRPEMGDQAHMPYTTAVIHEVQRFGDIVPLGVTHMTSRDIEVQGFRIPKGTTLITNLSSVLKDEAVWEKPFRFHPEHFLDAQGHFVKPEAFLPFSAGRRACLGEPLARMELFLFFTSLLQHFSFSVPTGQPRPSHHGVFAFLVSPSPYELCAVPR

`CC#CC(CC(=O)O)c1ccc(OCc2cccc(C3=CCC4(CC3)OCCO4)c2)cc1` (stereo not shown) [Example 1, 3-(4-(3-(1,4-dioxaspiro[4,5]dec-7-en-8-yl)benzyloxy)phenyl)hex-4-ynoic acid] came in with an inhibition at 15 min, 10 µM against CYP1A2 of 0%. Moreover, the inhibition at 30 min, 10 µM on CYP2C19 stood at 18.3%; on CYP3A4 it was 12.7%. The inhibition at 1.5 h, 10 µM on CYP2C9 was found to be 42.8%. Further, the inhibition at 1 h, 10 µM at CYP2D6 was 1.9%.
With `CC#CC(CC(=O)O)c1ccc(OCc2cccc(C3=CCC(O)CC3)c2)cc1` (stereo not shown) [Example 5, 3-(4-(3-(4-hydroxycyclohex-1-enyl)benzyloxy)phenyl)hex-4-ynoic acid], on GPR40 (read-out: EC50), the EC50 was in the range of 200 to 300 nM. For the same compound, the “% AUC” value in data set [1] (oral dose 0.3 mg/kg) is “C (under 25.0%)”; in data set [1] (oral dose 1 mg/kg) it was “C (under 25.0%)”; in data set [1] (oral dose 3 mg/kg), “C (under 25.0%)”; in data set [1] (oral dose 10 mg/kg), “B (25.0-35.0%)”; in data set [2] (oral dose 1 mg/kg), “B (25.0-35.0%)”; in data set [2] (oral dose 3 mg/kg), “B (25.0-35.0%)”. The “% AUC” value in data set [2] (oral dose 10 mg/kg) is “A (over 35.0%)”.
Regarding `CC#CC(CC(=O)O)c1ccc(OCc2ccc(CN3CC=C(c4ccccc4)CC3)cc2)cc1` (stereo not shown) [Example 14, 3-(4-(4-((4-phenyl-5,6-dihydropyridine-1(2H)-yl)methyl)benzyloxy)phenyl)hex-4-ynoic acid], the EC50 on GPR40 (read-out: EC50) and on GPR40 (setting [3]) was less than 200 nM each time. Besides, the “% AUC” value in data set [1] (oral dose 0.3 mg/kg) is given as “C (under 25.0%)”; in data set [1] (oral dose 1 mg/kg), “C (under 25.0%)”; in data set [1] (oral dose 3 mg/kg), “B (25.0-35.0%)”; in data set [1] (oral dose 10 mg/kg), “B (25.0-35.0%)”; in data set [2] (oral dose 1 mg/kg), “C (under 25.0%)”; in data set [2] (oral dose 3 mg/kg), “B (25.0-35.0%)”. In data set [2] (oral dose 10 mg/kg), the “% AUC” value is given as “B (25.0-35.0%)”.
As to `CC#C[C@@H](CC(=O)O)c1ccc(OCc2ccc(CN3CC=C(c4ccccc4)CC3)cc2)cc1` [Example 28, (S)-3-(4-(4-((4-phenyl-5,6-dihydropyridine-1(2H)-yl)methyl)benzyloxy)phenyl)hex-4-ynoic acid], the EC50 at GPR40 (read-out: EC50) and on GPR40 (setting [3]) was less than 200 nM in each case. Also, the “% AUC” value in data set [1] (oral dose 0.3 mg/kg) is reported as “C (under 25.0%)”; in data set [1] (oral dose 1 mg/kg), “C (under 25.0%)”; in data set [1] (oral dose 3 mg/kg), “C (under 25.0%)”; in data set [1] (oral dose 10 mg/kg), “B (25.0-35.0%)”; in data set [2] (oral dose 1 mg/kg), “B (25.0-35.0%)”; in data set [2] (oral dose 3 mg/kg), “B (25.0-35.0%)”. Further, in data set [2] (oral dose 10 mg/kg), the “% AUC” value was “B (25.0-35.0%)”.
Regarding `CC#C[C@@H](CC(=O)[O-])c1ccc(OCc2ccc(CN3Cc4ccccc4C3)cc2)cc1.[Na+]` [Example 37, sodium (S)-3-(4-(4-(isoindoline-2-ylmethyl)benzyloxy)phenyl)hex-4-ynoate], the “% AUC” value is “C (under 25.0%)” in data set [1] (oral dose 0.3 mg/kg); “B (25.0-35.0%)” in data set [1] (oral dose 1 mg/kg); “B (25.0-35.0%)” in data set [1] (oral dose 3 mg/kg); “A (over 35.0%)” in data set [1] (oral dose 10 mg/kg); “A (over 35.0%)” in data set [2] (oral dose 1 mg/kg); “A (over 35.0%)” in data set [2] (oral dose 3 mg/kg). Also, in data set [2] (oral dose 10 mg/kg), the “% AUC” value was “A (over 35.0%)”. The “hypoglycemic effect by that of the non-treated group” value in data set [1] (setting [4]) is reported as “more than 35.0%”. In addition, the “hypoglycemic effect compared to Comparative Example 1 at 10 mg/kg” value in data set [2] (oral dose 1 mg/kg) is recorded as “higher hypoglycemic effect”. The “hypoglycemic effect compared with the non-treated group” value in data set [2] (setting [4]) is “more than 35.0%”.
Consider `CC#C[C@@H](CC(=O)[O-])c1ccc(OCc2cccc(N3CCN(c4ccc(OC)cc4)CC3)c2)cc1.[Na+]` [Example 47, sodium (S)-3-(4-(3-(4-(4-methoxyphenyl)piperazin-1-yl)benzyloxy)phenyl)hex-4-ynoate], for which the EC50 at GPR40 (read-out: EC50) fell in the range of 200 to 300 nM. Also, the “% AUC” value was “C (under 25.0%)” in data set [1] (oral dose 0.3 mg/kg); “C (under 25.0%)” in data set [1] (oral dose 1 mg/kg); “B (25.0-35.0%)” in data set [1] (oral dose 3 mg/kg); “B (25.0-35.0%)” in data set [1] (oral dose 10 mg/kg); “C (under 25.0%)” in data set [2] (oral dose 1 mg/kg); “C (under 25.0%)” in data set [2] (oral dose 3 mg/kg). For the same compound, the “% AUC” value in data set [2] (oral dose 10 mg/kg) is recorded as “B (25.0-35.0%)”.

What is called inhibition is the share of the control response that was lost under treatment.
